Starred links: 1 amine or outer side, 2 acyl side, 3 side chain; linkers in the order of their positions; H or OH if unused. Positions of bridges follow the written chain, without caps; N, C: chain ends. Non-standard residues stand in square brackets, D forms with d. Residues, ends and D or L forms follow the SMILES beside them. 1Nal = N[C@@H](Cc1cccc2ccccc12)C(=O)O; TBMB = c1c(C[*:1])cc(C[*:3])cc1C[*:2]; Tle = CC(C)(C)[C@H](N)C(=O)O; βAla = NCCC(=O)O; Sar = CNCC(=O)O
Tests used:
[1] = system: MT1-positive tumor xenografts; assay: Tumor localization after IV injection into mice bearing MT1-positive tumor xenografts; settings: mouse, in vivo
catalytic domain of MT1 = catalytic domain of MT1 (Homo sapiens, UniProt P50281); assay: Bicycle peptide binding to catalytic domain
MMP15 = MMP15 (Homo sapiens, UniProt P51511); assay: Binding to related MMP family member
MMP16 = MMP16 (Homo sapiens, UniProt P51512); assay: Binding to related MMP family member
MMP24 = MMP24 (Homo sapiens, UniProt Q9Y5R2); assay: Binding to related MMP family member
MMP1 [2] = molecular target: T1, MMP1 (Homo sapiens, UniProt P03956); assay: Binding to related MMP family member
T1 sequence (P03956 100-469): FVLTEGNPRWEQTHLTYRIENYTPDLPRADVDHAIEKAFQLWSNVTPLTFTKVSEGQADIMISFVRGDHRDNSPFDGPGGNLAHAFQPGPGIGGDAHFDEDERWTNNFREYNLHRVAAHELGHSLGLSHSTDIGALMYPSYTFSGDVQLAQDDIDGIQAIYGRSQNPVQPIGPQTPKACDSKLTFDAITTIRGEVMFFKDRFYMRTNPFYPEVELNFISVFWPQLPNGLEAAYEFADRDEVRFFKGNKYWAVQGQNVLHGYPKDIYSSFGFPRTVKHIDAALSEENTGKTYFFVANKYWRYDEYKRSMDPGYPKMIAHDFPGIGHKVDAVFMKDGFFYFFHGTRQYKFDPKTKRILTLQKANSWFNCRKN

Pro-MMP1 = molecular target: T2, Pro-MMP1 (Homo sapiens, UniProt P03956); assay: Binding to related MMP family member
T2 construct: MMP family members tested (MMP15, MMP16, MMP24, MMP1, Pro-MMP1, MMP2)
T2 sequence (P03956 20-469 limits assumed): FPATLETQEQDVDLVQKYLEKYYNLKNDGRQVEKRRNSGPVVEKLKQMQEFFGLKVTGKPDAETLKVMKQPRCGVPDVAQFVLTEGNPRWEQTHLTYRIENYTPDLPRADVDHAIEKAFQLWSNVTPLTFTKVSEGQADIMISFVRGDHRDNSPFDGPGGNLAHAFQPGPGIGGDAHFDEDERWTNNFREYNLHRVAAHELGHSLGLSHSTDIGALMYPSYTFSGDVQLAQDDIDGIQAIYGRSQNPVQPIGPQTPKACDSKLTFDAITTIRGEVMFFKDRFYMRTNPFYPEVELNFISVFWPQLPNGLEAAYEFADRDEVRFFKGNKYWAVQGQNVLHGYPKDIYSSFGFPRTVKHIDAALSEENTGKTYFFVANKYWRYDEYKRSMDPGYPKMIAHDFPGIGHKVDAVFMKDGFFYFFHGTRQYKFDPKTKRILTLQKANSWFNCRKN

MMP2 [3] = molecular target: T3, MMP2 (Homo sapiens, UniProt P08253); assay: Binding to related MMP family member
T3 sequence (P08253 110-660): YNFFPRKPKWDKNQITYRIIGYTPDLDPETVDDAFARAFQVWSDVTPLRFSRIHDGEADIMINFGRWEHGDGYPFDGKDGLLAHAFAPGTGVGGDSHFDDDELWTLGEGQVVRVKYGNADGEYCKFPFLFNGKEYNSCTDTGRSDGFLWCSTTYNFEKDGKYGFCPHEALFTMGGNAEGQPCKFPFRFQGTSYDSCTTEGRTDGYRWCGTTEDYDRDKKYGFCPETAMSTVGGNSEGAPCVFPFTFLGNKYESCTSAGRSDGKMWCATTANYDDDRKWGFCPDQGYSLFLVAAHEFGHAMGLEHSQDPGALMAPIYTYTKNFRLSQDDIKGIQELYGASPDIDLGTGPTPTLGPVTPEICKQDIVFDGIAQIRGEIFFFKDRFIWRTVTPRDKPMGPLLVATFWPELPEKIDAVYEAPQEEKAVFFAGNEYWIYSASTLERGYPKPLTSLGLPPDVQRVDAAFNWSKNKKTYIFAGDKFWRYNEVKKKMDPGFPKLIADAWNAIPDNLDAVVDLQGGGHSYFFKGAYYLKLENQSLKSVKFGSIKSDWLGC

MT1 = MT1 (Homo sapiens, UniProt P50281); assay: Effect on catalytic activity of the protease in vitro; type: biochemical
MMP1 [4] = molecular target: T1, MMP1; assay: Effect on related MMP catalytic activity; type: biochemical; settings: in vitro
MMP2 [5] = molecular target: T3, MMP2; assay: Effect on related MMP catalytic activity; type: biochemical; settings: in vitro
MMP9 = MMP9 (Homo sapiens, UniProt P14780); assay: Effect on related MMP catalytic activity; type: biochemical; settings: in vitro
[6] = system: cell migration or invasion; assay: Effect on cell migration or invasion; type: cell-based; settings: in vitro

MMP9, sequence (P14780 94-707, species assumed): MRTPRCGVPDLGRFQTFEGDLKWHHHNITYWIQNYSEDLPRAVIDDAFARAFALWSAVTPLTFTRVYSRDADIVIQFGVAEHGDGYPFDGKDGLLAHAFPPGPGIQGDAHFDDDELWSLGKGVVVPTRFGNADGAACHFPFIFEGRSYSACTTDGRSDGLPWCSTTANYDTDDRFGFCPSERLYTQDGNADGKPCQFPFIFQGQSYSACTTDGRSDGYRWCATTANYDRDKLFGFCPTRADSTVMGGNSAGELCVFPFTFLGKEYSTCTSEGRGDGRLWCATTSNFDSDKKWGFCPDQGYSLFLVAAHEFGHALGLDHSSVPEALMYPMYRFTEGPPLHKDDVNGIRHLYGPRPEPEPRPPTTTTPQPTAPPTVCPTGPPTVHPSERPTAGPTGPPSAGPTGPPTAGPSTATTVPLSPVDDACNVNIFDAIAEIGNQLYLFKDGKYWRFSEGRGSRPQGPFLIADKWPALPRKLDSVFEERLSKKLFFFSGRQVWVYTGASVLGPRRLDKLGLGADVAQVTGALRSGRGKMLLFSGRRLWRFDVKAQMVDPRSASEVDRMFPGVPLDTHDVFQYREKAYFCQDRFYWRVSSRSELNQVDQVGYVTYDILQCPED
MMP16, sequence (P51512 120-607, species assumed): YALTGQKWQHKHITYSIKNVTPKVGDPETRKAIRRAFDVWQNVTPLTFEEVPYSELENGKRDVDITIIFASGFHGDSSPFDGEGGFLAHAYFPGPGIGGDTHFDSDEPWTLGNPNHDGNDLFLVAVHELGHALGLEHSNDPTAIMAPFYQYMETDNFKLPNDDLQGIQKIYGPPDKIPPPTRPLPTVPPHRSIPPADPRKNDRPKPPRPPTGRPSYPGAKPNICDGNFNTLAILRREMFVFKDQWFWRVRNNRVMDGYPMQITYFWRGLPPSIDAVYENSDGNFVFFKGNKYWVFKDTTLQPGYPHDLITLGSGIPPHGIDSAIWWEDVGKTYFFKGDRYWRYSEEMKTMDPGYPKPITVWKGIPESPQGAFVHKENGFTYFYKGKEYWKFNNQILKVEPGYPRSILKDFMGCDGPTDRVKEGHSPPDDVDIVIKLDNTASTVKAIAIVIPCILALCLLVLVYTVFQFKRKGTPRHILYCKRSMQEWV
MMP15, sequence (P51511 132-669, species assumed): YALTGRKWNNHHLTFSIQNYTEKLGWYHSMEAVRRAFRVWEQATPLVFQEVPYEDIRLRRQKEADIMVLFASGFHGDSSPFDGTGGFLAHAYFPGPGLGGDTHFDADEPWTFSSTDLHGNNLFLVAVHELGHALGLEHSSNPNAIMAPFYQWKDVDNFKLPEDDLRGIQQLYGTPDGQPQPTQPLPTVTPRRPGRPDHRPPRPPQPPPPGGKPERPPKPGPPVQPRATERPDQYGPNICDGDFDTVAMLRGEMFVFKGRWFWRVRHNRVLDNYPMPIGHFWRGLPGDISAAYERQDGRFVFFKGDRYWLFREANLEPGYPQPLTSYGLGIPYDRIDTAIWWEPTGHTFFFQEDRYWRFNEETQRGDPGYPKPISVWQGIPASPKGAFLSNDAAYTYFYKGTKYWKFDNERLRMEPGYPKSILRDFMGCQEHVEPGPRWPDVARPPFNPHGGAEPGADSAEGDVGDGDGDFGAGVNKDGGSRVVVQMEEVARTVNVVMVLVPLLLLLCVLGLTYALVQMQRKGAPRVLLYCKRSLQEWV
MMP24, sequence (Q9Y5R2 156-645, species assumed): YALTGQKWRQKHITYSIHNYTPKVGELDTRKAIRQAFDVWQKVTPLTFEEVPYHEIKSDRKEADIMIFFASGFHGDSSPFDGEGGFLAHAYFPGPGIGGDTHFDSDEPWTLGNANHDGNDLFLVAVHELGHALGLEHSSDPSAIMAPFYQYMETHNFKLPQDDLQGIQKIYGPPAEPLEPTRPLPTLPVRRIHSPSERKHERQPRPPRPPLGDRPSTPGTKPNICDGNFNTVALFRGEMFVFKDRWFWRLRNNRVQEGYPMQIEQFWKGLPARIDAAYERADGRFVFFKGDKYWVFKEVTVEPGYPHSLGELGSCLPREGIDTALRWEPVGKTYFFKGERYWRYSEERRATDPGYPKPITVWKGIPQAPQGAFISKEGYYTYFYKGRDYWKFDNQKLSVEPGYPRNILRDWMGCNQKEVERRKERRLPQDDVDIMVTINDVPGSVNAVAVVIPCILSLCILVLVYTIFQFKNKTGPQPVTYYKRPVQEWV

Compound	tumor localization [1]	binding to the catalytic domain (catalytic domain of MT1)	binding toward MMP15 (MMP15)	binding toward MMP16 (MMP16)	binding toward MMP24 (MMP24)	binding toward MMP1 (MMP1 [2])	binding toward Pro-MMP1 (Pro-MMP1)	binding toward MMP2 (MMP2 [3])	impact on the catalytic activity of the protease (MT1) (MT1)	impact on MMP1 catalytic activity (MMP1 [4])	impact on MMP2 catalytic activity (MMP2 [5])	impact on MMP9 catalytic activity (MMP9)	impact on cell migration or invasion [6]
C[C@H](NC(=O)CN(C)C(=O)CN(C)C(=O)CN(C)C(=O)CN(C)C(=O)CN(C)C(=O)CN(C)C(=O)CN(C)C(=O)CN(C)C(=O)CN(C)C(=O)CN(C)C(=O)CCN)C(=O)N[C@H]1CSCc2cc3cc(c2)CSC[C@H](NC(=O)[C@@H](C)NC(=O)[C@H](Cc2cccc4ccccc24)NC(=O)[C@H](CCC(=O)O)NC(=O)[C@H](CC(N)=O)NC(=O)[C@@H](C)NC1=O)C(=O)N[C@@H](CCC(=O)O)C(=O)N[C@@H](CC(=O)O)C(=O)N[C@@H](Cc1ccccc1)C(=O)N[C@@H](Cc1ccc(O)cc1)C(=O)N[C@@H](CC(=O)O)C(=O)N[C@@H](C(C)(C)C)C(=O)N[C@H](C(N)=O)CSC3 [^177Lu-loaded N241, metal not drawn] (H-[βAla][Sar][Sar][Sar][Sar][Sar][Sar][Sar][Sar][Sar][Sar]AC[dA]NE[1Nal][dA]CEDFYD[Tle]C-NH2; linker 13-19-26 via TBMB; N-terminus and C-terminus assumed)	rapid tumor localization												
C[C@H](NC(=O)CN(C)C(=O)CN(C)C(=O)CN(C)C(=O)CN(C)C(=O)CN(C)C(=O)CN(C)C(=O)CN(C)C(=O)CN(C)C(=O)CN(C)C(=O)CN(C)C(=O)CCN)C(=O)N[C@H]1CSCc2cc3cc(c2)CSC[C@H](NC(=O)[C@@H](C)NC(=O)[C@H](Cc2cccc4ccccc24)NC(=O)[C@H](CCC(=O)O)NC(=O)[C@H](CC(N)=O)NC(=O)[C@@H](C)NC1=O)C(=O)N[C@@H](CCC(=O)O)C(=O)N[C@@H](CC(=O)O)C(=O)N[C@@H](Cc1ccccc1)C(=O)N[C@@H](Cc1ccc(O)cc1)C(=O)N[C@@H](CC(=O)O)C(=O)N[C@@H](C(C)(C)C)C(=O)N[C@H](C(N)=O)CSC3 [N241] (H-[βAla][Sar][Sar][Sar][Sar][Sar][Sar][Sar][Sar][Sar][Sar]AC[dA]NE[1Nal][dA]CEDFYD[Tle]C-NH2; linker 13-19-26 via TBMB)		no binding	no binding	no binding	no binding	no binding	no binding	no binding	no direct impact	no direct impact	no direct impact	no direct impact	no direct impact
